# Data as given in US12139729B2, “Neurodegenerative disorders” (priority 2013, dated 2024).
# Residues, ends and D or L forms follow the SMILES beside them.
# Legend:
# [1] = system: rat brain slices; assay: Calcium fluorometry (Fluo-4) in brain slices; format: cell-based; conditions: two hours
# Method: Increases in intracellular Ca^2+ were monitored by measuring changes in fluorescence in cells loaded with Fluo-4 (Life Technologies Corporation, UK). […] After the 2 hours, slices were incubated in the dark for 40 minutes at room temperature with 1.2 ml/well of loading medium that contained: Tyrode's salt solution (TSS; 137 mM NaCl, 2.7 mM KCl, 1.0 mM MgCl2, 2.5 mM CaCl2, 0.2 mM NaH2PO4, 12.0 NaHCO3, 5.5 glucose, pH 7.4), Fluo-4 (2 μM), Pluronic F127 (0.02%) and probenecid (2 mM). Probenecid is a blocker of the multidrug resistant protein, an ion transporter, and avoids the excretion of the fluorescent molecule from the cell. After incubation, slices were washed with TSS and 1200 μl/well of de-esterification medium, containing TSS and probenecid, were added. Slices were incubated in the dark for 20 minutes at 22° C. Fluorescence measurements (excitation 485 nm, emission 538 nm) were recorded in a Fluostar Optima (BMG, UK) plate reader.
# [2] = Partition coefficient (Log P), shake-tube method, 1-octanol/water; format: physicochemical; conditions: room temperature
# Method: Saturation of the solvents was performed as follows. 1-octanol was agitated in the presence of water for 24 h at room temperature. mQ water was agitated in presence of 1-octanol for 24 h at room temperature. Then the solutions were left to equilibrate overnight at room temperature. Saturated solvents were collected, using syringes and needles, and stored at room temperature until further use.
# Saturated water and saturated i-octanol were placed in a glass tube in the following ratios: Each tube contained the equivalent of 0.25 mg of cyclic T14. All tubes were then mixed for 4 h at room temperature. After agitation the tubes were left at room temperature to equilibrate.
# The concentrations of cyclic T14 used for the standard curve were: 0.5 mg·ml^−1, 0.25 mg·ml^−1, 0.13 mg·ml^−1, 0.066 mg·ml^−1, 0.033 mg·ml^−1 and 0.016 mg/ml^−1. The absorbance of the standard curve was measured at 280 nm.
# Both fractions of each sample were collected separately using a syringe with needle. The absorbance of all fractions was measured at 280 nm and the concentration of all the fraction was estimated based on the standard curve. The partition coefficient of cyclic T14 was calculated using the following equation: Log P=Log (Concentration in Octanol/Concentration in Water)
# The results from each condition were averaged in order to obtain the Log P of cyclic T14.
# [3] = system: PC12 cells; assay: Cell Counting Kit-8 (CCK-8) cell viability assay; format: cell-based; conditions: T30 5 uM, FIG. 15
# Source text: A Cell Counting Kit-8 (CCK-8) was used as an improvement of the SRB technique used before. By utilizing the highly water-soluble tetrazolium salt WST-8, CCK-8 produces a water-soluble formazan dye upon reduction in the presence of an electron carrier. WST-8 is reduced by dehydrogenases in cells to give a yellow colored product (formazan), which is soluble in the tissue culture medium. The amount of the formazan dye generated by the activity of dehydrogenases in cells is directly proportional to the number of living cells. PC12 cells are plated in 200 μl of complete growth medium the day before the experiment in 96 well plates. Treatments with T30 and NBP-14 are added and incubated for 1 hour in the incubator.
# Subsequently, 100 μl of growth medium is removed and 10 μl of CCK-8 (Cell Counting Kit-8) solution is added. The plate is incubated for 2 hours in the incubator and then placed in the absorbance plate reader. The absorbance must be measured at 450 nm.
# [4] = system: PC12 cells; assay: Sulforhodamine B (SRB) cell viability assay; format: cell-based
# Method: Wild-type PC12 cell were provided by Sigma-Aldrich (St. Louis, MO). The culture was routinely plated in 100 mm dishes (Corning) coated with collagen (2 μg/cm^2) and maintained in growth medium with Minimum Essential Medium Eagle (MEM) supplemented with heat-inactivated 10% horse serum (HS) and 5% foetal bovine serum (FBS), 10 mM HEPES, 2 mM L-Glutamine and 1:400 Penicillin/streptomycin solution. Cells were maintained at 37° C. in a humidified atmosphere 5% CO2 and the medium was replaced every 2 days. For splitting, cells were dislodged from the dish using a pipette with medium, with a portion of these replated onto new cultured dishes. Cells were used between passages 12 and 25.
# The cell viability assay used was the sulforhodamine B (SRB) colorimetric assay for toxicity screening. The day before of the experiment cells were seeded onto collagen-coated 96-well plates in a concentration of 40,000 cells/well. Cell concentration was determined by the Fuchs-Rosenthal chamber. […] After treatment, medium was replaced and cells were fixed by adding 100 μl of 10% Trichloroacetic Acid (TCA) for 1 h at 4° C. Thereafter, cells were washed with H2O and stained with 100 μl of a 0.057% SRB solution in 1% Acetic acid (HAc) for 30 minutes at room temperature. After staining cells were washed with 1% HAc for removing the excess of SRB and then incubated with 200 μl of 10 mM Tris base (pH 10.5) and shake it for 5 minutes to solubilise the protein-bound dye. Measurement of the absorbance took place in a VMax Kinetic Microplate Reader (Molecular Devices) at 490 nm.
smiles,measurement,setting,value
CSCC[C@@H]1NC(=O)[C@H](Cc2ccc(O)cc2)NC(=O)[C@H](CO)NC(=O)[C@H](CO)NC(=O)[C@H](Cc2c[nH]c3ccccc23)NC(=O)[C@H](CCCNC(=N)N)NC(=O)[C@H](Cc2c[nH]cn2)NC(=O)[C@H](Cc2ccccc2)NC(=O)[C@H](CCC(=O)O)NC(=O)[C@H](C)NC(=O)[C@H](CCCCN)NC(=O)[C@H](Cc2c[nH]c3ccccc23)NC(=O)[C@H](Cc2c[nH]cn2)NC(=O)[C@H](C(C)C)NC1=O [Cyclic T14] (cyclo(AEFHRWSSYMVHWK)),"intracellular calcium level raised by β-Amyloid, combined with Cyclic T14",[1]; Cyclic T14 1 μM + β-Amyloid 10 μM,returned to baseline
same,"intracellular calcium level, compound alone",[1]; Cyclic T14 1 μM,does not change the basal level
same,logP,[2],-0.59
same,concentration range protective against T30 induced cell death,[3],high nanomolar range
same,protection against non-specific cytotoxic effect of H2O2 (H2O2 alone vs combined),"[4]; H2O2 100 μM + Cyclic T14 100 nM, PC12",no significant difference
same,threshold dose for full protection against β-amyloid,"[4]; PC12, 1 hour",1 nM
same,minimum effective concentration against β-Amyloid (10 μM) on cell viability,"[4]; PC12, FIG. 8",1 nM
same,blocks β-Amyloid at low doses (Table 3 feature),[4]; ✓ = Dream Drug feature 'Blocks β-Amyloid at low doses 1 nM)',✓
